The target in assay [1] is Tyrosine-protein kinase Lyn (Homo sapiens) (UniProt P07948). Kind of assay: Inhibition of human LYN B at 18.6 nM by HotSpot assay relative to control.
Assay [2] deals with Mitogen-activated protein kinase kinase kinase 7 (Homo sapiens) (UniProt O43318). As to the kind of experiment: Inhibition of human TAK1 at 18.6 nM by HotSpot assay relative to control.
For assay [3], the target named is Casein kinase I isoform delta (Homo sapiens) (UniProt P48730). Kind of assay: Inhibition of human CK1d at 18.6 nM by HotSpot assay relative to control.
Chain of Casein kinase I isoform delta (Homo sapiens) (P48730 whole entry, looked up, canonical isoform): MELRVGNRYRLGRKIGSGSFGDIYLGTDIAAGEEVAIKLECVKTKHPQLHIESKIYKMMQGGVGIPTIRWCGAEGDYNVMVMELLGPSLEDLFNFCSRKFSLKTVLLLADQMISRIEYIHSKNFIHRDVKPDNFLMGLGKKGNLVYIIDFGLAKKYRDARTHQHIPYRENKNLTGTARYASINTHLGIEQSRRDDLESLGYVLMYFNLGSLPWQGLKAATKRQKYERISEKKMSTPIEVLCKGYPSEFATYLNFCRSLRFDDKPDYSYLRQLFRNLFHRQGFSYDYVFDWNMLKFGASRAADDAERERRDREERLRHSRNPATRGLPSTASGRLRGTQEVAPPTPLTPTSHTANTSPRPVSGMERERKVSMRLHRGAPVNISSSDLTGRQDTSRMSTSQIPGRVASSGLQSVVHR
Assay [4] deals with Serine/threonine-protein kinase pim-1 (Homo sapiens) (UniProt P11309). As to the kind of experiment: Inhibition of human PIM1 at 18.6 nM by HotSpot assay relative to control.
The target of assay [5] is Calcium/calmodulin-dependent protein kinase type 1B (Homo sapiens) (UniProt Q6P2M8). Kind of assay: Inhibition of human CAMK1b at 18.6 nM by HotSpot assay relative to control.
Chain of Calcium/calmodulin-dependent protein kinase type 1B (Homo sapiens) (Q6P2M8 whole entry): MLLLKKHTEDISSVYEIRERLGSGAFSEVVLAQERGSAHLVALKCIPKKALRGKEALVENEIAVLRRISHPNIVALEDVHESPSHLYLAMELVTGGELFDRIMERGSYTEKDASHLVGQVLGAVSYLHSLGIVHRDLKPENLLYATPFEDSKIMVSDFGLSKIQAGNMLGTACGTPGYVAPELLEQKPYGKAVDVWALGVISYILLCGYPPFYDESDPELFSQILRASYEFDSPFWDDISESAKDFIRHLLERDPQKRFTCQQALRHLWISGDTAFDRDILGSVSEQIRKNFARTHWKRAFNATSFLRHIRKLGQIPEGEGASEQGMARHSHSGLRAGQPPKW
The target of assay [6] is Fibroblast growth factor receptor 3 (Homo sapiens) (UniProt P22607). Kind of assay: Inhibition of human FGFR3 at 18.6 nM by HotSpot assay relative to control.
Chain of Fibroblast growth factor receptor 3 (Homo sapiens) (P22607 23-806 limits assumed): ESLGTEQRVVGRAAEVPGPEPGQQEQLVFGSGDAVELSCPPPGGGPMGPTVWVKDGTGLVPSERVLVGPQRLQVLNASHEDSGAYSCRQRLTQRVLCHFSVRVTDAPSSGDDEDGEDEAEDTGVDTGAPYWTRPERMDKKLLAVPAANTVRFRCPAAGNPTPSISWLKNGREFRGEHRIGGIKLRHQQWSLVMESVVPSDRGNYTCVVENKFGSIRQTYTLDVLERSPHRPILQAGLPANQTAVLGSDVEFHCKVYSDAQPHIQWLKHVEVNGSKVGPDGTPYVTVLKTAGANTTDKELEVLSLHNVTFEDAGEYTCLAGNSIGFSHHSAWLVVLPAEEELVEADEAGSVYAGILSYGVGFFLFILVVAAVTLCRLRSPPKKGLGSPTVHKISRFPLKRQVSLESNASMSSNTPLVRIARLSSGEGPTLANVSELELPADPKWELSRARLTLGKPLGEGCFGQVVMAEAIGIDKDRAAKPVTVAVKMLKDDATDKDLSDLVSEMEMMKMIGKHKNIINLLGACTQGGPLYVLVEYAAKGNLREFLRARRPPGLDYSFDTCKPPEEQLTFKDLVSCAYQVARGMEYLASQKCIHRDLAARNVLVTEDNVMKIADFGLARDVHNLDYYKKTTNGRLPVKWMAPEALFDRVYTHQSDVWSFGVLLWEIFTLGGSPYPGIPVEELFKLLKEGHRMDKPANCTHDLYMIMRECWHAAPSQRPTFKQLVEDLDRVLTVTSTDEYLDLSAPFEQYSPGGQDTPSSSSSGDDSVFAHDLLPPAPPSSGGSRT
In assay [7] the target is Serine/threonine-protein kinase MARK1 (Homo sapiens) (UniProt Q9P0L2). As to the kind of experiment: Inhibition of human MARK1 at 18.6 nM by HotSpot assay relative to control.
Assay [8] concerns the target Serine/threonine-protein kinase PAK 5 (Homo sapiens) (UniProt Q9P286). Kind of assay: Inhibition of human PAK5 at 18.6 nM by HotSpot assay relative to control.
Assay [9] addresses Serine/threonine-protein kinase MRCK beta (Homo sapiens) (UniProt Q9Y5S2). As to the kind of experiment: Inhibition of human CDC42BPB at 1.82 nM by HotSpot assay relative to control.
Assay [10] concerns the target CDK4/Cyclin D3 (Homo sapiens) (UniProt P11802+P30281). Kind of assay: Inhibition of human CDK4/cyclin D3 at 1.82 nM by HotSpot assay relative to control. In kind it is protein-complex assay.
The target of assay [11] is T1, Beta-adrenergic receptor kinase 1 (Homo sapiens) (UniProt P25098).
T1 sequence (whole entry): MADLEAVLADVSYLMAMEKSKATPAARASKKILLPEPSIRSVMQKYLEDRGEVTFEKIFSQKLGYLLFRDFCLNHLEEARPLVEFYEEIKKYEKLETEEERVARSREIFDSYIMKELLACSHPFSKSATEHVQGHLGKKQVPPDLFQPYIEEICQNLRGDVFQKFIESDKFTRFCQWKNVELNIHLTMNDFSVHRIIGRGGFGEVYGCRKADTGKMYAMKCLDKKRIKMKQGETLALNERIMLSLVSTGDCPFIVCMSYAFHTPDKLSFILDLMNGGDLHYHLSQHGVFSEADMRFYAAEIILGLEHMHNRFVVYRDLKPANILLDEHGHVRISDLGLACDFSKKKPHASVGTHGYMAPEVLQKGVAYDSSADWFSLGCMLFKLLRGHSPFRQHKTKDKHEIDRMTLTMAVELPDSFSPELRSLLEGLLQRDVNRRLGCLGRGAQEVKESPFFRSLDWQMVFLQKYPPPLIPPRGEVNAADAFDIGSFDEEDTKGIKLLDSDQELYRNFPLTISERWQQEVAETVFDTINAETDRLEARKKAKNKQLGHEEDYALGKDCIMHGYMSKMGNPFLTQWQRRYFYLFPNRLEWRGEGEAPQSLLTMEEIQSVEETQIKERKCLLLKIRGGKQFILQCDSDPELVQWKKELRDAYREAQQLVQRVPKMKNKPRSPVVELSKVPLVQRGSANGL
Kind of assay: Inhibition of human GRK2 at 1.82 nM by HotSpot assay relative to control.

The target in assay [12] is Tyrosine-protein kinase Srms (Homo sapiens) (UniProt Q9H3Y6). Kind of assay: Inhibition of human SRMS at 1.82 nM by HotSpot assay relative to control.
The target in assay [13] is T2, 3-phosphoinositide-dependent protein kinase 1 (Homo sapiens) (UniProt O15530).
T2 sequence (whole entry): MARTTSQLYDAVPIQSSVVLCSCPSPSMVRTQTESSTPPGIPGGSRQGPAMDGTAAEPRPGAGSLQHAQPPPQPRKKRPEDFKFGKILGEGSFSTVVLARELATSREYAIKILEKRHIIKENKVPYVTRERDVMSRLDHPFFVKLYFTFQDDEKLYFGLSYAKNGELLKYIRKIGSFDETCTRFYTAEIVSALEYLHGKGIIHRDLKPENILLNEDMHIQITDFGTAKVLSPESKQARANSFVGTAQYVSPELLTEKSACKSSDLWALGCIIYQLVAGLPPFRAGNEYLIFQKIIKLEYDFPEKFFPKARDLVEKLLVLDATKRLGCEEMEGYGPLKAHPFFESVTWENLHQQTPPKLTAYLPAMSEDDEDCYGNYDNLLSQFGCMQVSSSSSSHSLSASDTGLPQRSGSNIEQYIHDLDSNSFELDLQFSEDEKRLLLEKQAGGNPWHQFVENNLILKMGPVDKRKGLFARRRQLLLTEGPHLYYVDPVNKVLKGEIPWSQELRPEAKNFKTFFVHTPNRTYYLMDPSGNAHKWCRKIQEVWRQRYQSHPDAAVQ
Kind of assay: Inhibition of human PDPK1 at 1.82 nM by HotSpot assay relative to control.

Assay [14] has as its target T3, TGF-beta receptor type-1 (Homo sapiens) (UniProt P36897).
T3 sequence (whole entry): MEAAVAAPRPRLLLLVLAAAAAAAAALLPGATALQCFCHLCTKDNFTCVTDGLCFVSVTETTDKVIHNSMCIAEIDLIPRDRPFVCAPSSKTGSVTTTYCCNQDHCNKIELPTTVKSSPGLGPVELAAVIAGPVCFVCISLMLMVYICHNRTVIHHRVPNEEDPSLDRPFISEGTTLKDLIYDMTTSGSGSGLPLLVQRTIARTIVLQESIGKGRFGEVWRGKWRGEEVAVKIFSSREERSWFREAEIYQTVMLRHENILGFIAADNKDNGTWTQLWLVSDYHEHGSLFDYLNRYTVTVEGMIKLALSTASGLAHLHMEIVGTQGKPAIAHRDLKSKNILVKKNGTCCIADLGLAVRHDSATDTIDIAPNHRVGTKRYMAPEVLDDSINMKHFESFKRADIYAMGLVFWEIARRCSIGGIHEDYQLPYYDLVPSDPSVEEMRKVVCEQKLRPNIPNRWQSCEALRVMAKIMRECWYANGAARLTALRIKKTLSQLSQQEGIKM
As to the kind of experiment: Inhibition of human ALK5 at 1.82 nM by HotSpot assay relative to control.

The target in assay [15] is Calcium/calmodulin-dependent protein kinase kinase 2 (Homo sapiens) (UniProt Q96RR4). Kind of assay: Inhibition of human CAMKK2 at 1.82 nM by HotSpot assay relative to control.
Chain of Calcium/calmodulin-dependent protein kinase kinase 2 (Homo sapiens) (Q96RR4 2-588 limits assumed): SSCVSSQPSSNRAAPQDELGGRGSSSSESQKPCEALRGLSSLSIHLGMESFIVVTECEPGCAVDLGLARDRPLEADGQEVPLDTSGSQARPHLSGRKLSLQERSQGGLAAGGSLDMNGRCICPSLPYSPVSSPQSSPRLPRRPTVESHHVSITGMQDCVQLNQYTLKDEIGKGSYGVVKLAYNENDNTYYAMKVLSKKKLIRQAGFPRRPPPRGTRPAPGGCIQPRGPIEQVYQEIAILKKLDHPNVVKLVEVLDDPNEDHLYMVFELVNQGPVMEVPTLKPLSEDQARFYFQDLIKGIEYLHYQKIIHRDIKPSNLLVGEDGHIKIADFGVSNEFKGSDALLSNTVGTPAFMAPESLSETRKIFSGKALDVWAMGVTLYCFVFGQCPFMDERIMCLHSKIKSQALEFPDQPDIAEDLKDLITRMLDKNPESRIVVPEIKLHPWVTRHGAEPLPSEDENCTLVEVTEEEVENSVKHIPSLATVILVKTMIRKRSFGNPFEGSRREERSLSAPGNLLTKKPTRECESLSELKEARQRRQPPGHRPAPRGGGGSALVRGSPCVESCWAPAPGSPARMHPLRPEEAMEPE

2 compounds from ChEMBL document CHEMBL5653615 (J Biol Chem, 2013) can be followed below.

One may read the inhibition as the drop in the measured response relative to a control, in per cent.

Chain of Serine/threonine-protein kinase MRCK beta (Homo sapiens) (Q9Y5S2 whole entry): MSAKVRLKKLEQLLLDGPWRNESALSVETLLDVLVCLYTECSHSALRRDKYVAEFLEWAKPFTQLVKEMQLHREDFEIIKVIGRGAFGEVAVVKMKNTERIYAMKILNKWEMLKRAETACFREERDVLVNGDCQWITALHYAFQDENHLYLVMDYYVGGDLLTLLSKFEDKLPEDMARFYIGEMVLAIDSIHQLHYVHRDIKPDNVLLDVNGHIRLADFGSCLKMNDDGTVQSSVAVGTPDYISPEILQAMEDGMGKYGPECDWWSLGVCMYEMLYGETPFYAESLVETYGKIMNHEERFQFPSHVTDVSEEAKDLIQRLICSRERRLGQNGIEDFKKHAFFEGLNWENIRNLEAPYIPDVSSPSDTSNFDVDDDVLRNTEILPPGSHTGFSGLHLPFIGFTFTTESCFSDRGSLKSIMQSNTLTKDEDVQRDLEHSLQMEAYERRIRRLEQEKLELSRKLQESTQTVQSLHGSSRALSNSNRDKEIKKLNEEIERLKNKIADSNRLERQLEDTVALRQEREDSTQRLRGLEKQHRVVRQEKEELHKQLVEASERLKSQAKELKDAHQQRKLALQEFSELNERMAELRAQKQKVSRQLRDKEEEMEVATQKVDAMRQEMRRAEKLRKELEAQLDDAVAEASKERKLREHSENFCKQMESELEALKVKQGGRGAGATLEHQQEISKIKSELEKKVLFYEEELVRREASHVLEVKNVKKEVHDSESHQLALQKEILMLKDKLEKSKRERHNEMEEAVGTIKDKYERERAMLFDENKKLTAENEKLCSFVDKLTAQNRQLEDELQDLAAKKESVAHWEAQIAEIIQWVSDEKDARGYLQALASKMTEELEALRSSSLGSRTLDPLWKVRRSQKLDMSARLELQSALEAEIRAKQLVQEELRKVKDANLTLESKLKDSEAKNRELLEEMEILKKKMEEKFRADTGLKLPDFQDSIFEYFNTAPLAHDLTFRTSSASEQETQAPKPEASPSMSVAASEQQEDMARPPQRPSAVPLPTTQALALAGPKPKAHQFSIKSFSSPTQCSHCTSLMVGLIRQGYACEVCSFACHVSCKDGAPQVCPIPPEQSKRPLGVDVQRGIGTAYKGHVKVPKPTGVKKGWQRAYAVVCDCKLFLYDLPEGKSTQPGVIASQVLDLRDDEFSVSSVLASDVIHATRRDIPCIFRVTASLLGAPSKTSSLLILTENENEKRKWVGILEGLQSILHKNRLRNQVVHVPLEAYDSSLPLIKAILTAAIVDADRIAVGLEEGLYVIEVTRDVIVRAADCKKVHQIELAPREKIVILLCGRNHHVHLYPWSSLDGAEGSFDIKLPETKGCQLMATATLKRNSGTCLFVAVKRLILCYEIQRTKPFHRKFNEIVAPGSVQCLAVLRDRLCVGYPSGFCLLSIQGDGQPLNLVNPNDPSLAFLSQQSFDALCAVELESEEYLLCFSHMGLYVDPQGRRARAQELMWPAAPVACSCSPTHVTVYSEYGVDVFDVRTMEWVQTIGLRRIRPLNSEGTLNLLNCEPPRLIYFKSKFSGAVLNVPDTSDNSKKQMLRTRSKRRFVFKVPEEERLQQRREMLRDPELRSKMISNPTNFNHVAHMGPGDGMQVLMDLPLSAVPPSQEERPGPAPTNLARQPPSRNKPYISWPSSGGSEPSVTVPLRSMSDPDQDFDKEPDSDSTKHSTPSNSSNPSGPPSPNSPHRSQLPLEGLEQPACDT
Chain of Tyrosine-protein kinase Lyn (Homo sapiens) (P07948 2-512 limits assumed): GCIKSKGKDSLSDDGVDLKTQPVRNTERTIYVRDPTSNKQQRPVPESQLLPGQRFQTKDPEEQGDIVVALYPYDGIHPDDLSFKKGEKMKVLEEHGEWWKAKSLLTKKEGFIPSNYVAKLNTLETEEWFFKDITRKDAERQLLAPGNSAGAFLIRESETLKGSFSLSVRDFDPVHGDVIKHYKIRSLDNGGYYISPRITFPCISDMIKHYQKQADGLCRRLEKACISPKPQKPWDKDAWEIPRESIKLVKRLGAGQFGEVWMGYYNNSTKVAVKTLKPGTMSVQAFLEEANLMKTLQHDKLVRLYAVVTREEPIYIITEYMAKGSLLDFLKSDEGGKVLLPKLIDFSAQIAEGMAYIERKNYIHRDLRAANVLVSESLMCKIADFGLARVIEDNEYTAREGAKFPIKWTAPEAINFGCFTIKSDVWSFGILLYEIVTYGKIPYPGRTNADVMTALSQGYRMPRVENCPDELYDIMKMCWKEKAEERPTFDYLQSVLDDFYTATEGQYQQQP
Chain of Serine/threonine-protein kinase PAK 5 (Homo sapiens) (Q9P286 whole entry, looked up): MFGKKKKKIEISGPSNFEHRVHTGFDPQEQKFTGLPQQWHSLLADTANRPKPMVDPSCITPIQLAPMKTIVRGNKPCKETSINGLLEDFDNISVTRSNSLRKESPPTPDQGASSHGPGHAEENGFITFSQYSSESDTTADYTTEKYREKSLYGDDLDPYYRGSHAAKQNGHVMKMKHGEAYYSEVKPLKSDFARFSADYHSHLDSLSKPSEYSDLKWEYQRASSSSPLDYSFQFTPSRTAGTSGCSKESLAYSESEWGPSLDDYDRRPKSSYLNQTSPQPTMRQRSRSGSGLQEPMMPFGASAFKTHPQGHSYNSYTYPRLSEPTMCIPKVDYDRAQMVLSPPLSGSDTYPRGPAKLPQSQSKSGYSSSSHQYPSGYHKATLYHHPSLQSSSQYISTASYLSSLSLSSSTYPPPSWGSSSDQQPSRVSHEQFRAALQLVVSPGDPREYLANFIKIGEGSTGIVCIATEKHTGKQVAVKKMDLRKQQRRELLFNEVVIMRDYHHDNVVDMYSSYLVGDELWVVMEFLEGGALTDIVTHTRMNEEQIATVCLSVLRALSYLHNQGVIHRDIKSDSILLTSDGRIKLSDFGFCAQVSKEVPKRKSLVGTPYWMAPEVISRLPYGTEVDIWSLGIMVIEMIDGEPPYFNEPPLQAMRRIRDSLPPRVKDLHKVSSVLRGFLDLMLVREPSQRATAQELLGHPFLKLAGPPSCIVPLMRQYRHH

As to `C[C@]1(O)C[C@@H](c2nc(-c3ccc4ccc(-c5ccccc5)nc4c3)c3c(N)nccn32)C1`, the inhibition in assay [1] was 4.09%; in [2], 1.98%; in assay [3], -2.47%; in assay [4], -3.58%; in assay [5], -4.62%; in assay [6], 8.2%. Moreover, the inhibition in assay [7] is -7.27%; in assay [8] it was -1.6%.
As to `C[C@@]1(C(=O)Nc2ccc(F)nc2)CCCN1c1nc(Nc2cc(C3CC3)n[nH]2)c2cccn2n1`, the inhibition in assay [9] was -4.49%; in assay [10], -0.76%; in assay [11], -0.25%; in assay [12], -3.77%; in assay [13], -0.32%; in assay [14] it was -0.63%. Besides, the inhibition in assay [15] stood at 26.5%.
